Measurements reported in ChEMBL document CHEMBL4152377, “Design and Activity of Specific Hypoxia-Inducible Factor-2α (HIF-2α) Inhibitors for the Treatment of Clear Cell Renal Cell Carcinoma: Discovery of Clinical Candidate ( S)-3-((2,2-Difluoro-1-hydroxy-7-(methylsulfonyl)-2,3-dihydro-1 H-inden-4-yl)oxy)-5-fluorobenzonitrile (PT2385)” (J Med Chem, 2018).
Converted amounts (≈) assume the structure as drawn. The source made the active and inactive calls. The rule behind the calls is not given here.

Experiments:
[1] = Apparent permeability across apical to basolateral side in MDCK-MDR1 cells at 1 uM after 1 hr by LC/MS/MS analysis; format: ADME, cell-based, Canis lupus familiaris; settings: dog
[2] = AUCt in Sprague-Dawley rat at 10 mg/kg, po via gavage by UPLC analysis; format: ADME, organism-based; settings: in vivo
Canis familiaris [3] = assay: Oral bioavailability in Beagle dog at 10 mg/kg administered via gavage by UPLC analysis; format: ADME, organism-based, Canis lupus familiaris; settings: in vivo
[4] = Protein binding in dog plasma at 10 uM after 4 hrs by LC-MS/MS analysis; format: ADME, cell-free, Canis lupus familiaris; settings: read-out: PPB (converted)
[5] = Clearance in CD1 mouse at 3 mg/kg, iv by UPLC analysis; format: ADME, organism-based; settings: in vivo
[6] = Protein binding in human plasma at 10 uM after 4 hrs by LC-MS/MS analysis; format: ADME, cell-free; settings: read-out: PPB (converted)
[7] = Half life in Sprague-Dawley rat at 10 mg/kg, po via gavage by UPLC analysis; format: ADME, organism-based; settings: in vivo
[8] = Intrinsic clearance in rat liver microsomes at 1 uM measured up to 30 mins by LC-MS/MS analysis; format: ADME, microsome; settings: read-out: CLH
[9] = Intrinsic clearance in mouse liver microsomes at 1 uM measured up to 30 mins by LC-MS/MS analysis; format: ADME, microsome; settings: read-out: CLH
[10] = Protein binding in mouse plasma at 10 uM after 4 hrs by LC-MS/MS analysis; format: ADME, cell-free; settings: read-out: PPB (converted)
Cytochrome P450 2D6 = Cytochrome P450 2D6 (Homo sapiens, UniProt P10635); assay: Inhibition of CYP2D6 in human liver microsomes using dextromethorphan as substrate after 10 mins in presence of NADPH by LC-MS/MS analysis; format: ADME
[11] = Thermodynamic solubility of the compound in phosphate buffer at pH 7.4 after 24 hrs by HPLC-UV analysis; format: physicochemical; settings: read-out: Therm_solubility
[12] = Volume of distribution at steady state in CD1 mouse at 3 mg/kg, iv by UPLC analysis; format: ADME, organism-based; settings: in vivo, read-out: Vdss
786-0 [13] = assay: Antitumor activity against human 786-O cells xenografted in SCID/Biege mouse assessed as tumor regression at 10 mg/kg, po bid for 21 days; format: functional, organism-based
Mus musculus [14] = assay: Toxicity in SCID/Biege mouse xenografted with human 786-O cells assessed as morbidity at 10 mg/kg, po bid for 21 days; format: organism-based; settings: in vivo, 504 h
[15] = AUCt in CD1 mouse at 10 mg/kg, po by UPLC analysis; format: ADME, organism-based; settings: in vivo
[16] = Volume of distribution at steady state in Beagle dog at 3 mg/kg, iv by UPLC analysis; format: ADME, organism-based, Canis lupus familiaris; settings: in vivo, read-out: Vdss
[17] = Protein binding in rat plasma at 10 uM after 4 hrs by LC-MS/MS analysis; format: ADME, cell-free; settings: read-out: PPB (converted)
[18] = Half life in Beagle dog at 10 mg/kg, po via gavage by UPLC analysis; format: ADME, organism-based, Canis lupus familiaris; settings: in vivo
Mus musculus [19] = assay: Minimum drug level in SCID/Biege mouse xenografted with human 786-O cells at 10 mg/kg, po bid for 3 days and measured after 12 hrs post last dose by LC-MS/MS analysis; format: ADME, organism-based; settings: in vivo
[20] = Intrinsic clearance in human liver microsomes at 1 uM measured up to 30 mins by LC-MS/MS analysis; format: ADME, microsome; settings: read-out: CLH
[21] = Protein binding in monkey plasma at 10 uM after 4 hrs by LC-MS/MS analysis; format: ADME, cell-free, Macaca mulatta; settings: rhesus monkey, read-out: PPB (converted)
Cytochrome P450 1A2 = target: T1, Cytochrome P450 1A2 (Homo sapiens, UniProt P05177); assay: Inhibition of CYP1A2 in human liver microsomes using phenacetin after 10 mins in presence of NADPH by LC-MS/MS analysis; format: ADME
T1 sequence (P05177 whole entry): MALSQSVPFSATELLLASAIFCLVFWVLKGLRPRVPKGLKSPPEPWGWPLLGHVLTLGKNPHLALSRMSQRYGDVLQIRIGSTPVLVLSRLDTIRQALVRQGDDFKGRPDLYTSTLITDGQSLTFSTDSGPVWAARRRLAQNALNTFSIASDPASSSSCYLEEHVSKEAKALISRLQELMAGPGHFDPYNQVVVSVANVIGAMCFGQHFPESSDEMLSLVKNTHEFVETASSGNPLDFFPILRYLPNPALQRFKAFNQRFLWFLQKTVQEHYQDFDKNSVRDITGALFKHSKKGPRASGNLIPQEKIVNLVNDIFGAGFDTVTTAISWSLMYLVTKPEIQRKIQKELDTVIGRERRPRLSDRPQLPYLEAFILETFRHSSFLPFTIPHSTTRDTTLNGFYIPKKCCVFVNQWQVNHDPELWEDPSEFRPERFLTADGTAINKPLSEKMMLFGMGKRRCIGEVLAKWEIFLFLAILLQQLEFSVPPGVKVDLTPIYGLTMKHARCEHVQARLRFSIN

[22] = Intrinsic clearance in monkey liver microsomes at 1 uM measured up to 30 mins by LC-MS/MS analysis; format: ADME, Macaca mulatta, microsome; settings: rhesus monkey, read-out: CLH
786-0 [23] = assay: In vivo inhibition of HIF-2alpha in SCID/Biege mouse xenografted with human 786-O cells assessed as reduction in tumor derived VEGFA protein levels at 10 mg/kg, po bid for 3 days and measured after 12 hrs post last dose by ELISA; format: functional, organism-based
Mus musculus [24] = assay: In vivo inhibition of HIF-2alpha in SCID/Biege mouse xenografted with human 786-O cells assessed as reduction in VEGFA mRNA levels at 10 mg/kg, po bid for 3 days and measured after 12 hrs post last dose by qRT-PCR analysis; format: functional, organism-based
[25] = Volume of distribution at steady state in Sprague-Dawley rat at 3 mg/kg, iv by UPLC analysis; format: ADME, organism-based; settings: in vivo, read-out: Vdss
[26] = Intrinsic clearance in dog liver microsomes at 1 uM measured up to 30 mins by LC-MS/MS analysis; format: ADME, Canis lupus familiaris, microsome; settings: read-out: CLH
Cytochrome P450 2C9 = Cytochrome P450 2C9 (Homo sapiens, UniProt P11712); assay: Inhibition of CYP2C9 in human liver microsomes using diclofenac as substrate after 10 mins in presence of NADPH by LC-MS/MS analysis; format: ADME
Canis familiaris [27] = assay: AUCt in Beagle dog at 10 mg/kg, po via gavage by UPLC analysis; format: ADME, organism-based, Canis lupus familiaris; settings: in vivo
[28] = Oral bioavailability in Sprague-Dawley rat at 10 mg/kg administered via gavage by UPLC analysis; format: ADME, organism-based; settings: in vivo
Mus musculus [29] = assay: Toxicity in SCID/Biege mouse xenografted with human 786-O cells assessed as effect on body weight at 10 mg/kg, po bid for 21 days; format: organism-based; settings: in vivo, 504 h
Cytochrome P450 3A4 = Cytochrome P450 3A4 (Homo sapiens, UniProt P08684); assay: Inhibition of CYP3A4 in human liver microsomes using midazolam as substrate after 10 mins in presence of NADPH by LC-MS/MS analysis; format: ADME
Mus musculus [30] = assay: Toxicity in SCID/Biege mouse xenografted with human 786-O cells assessed as mortality at 10 mg/kg, po bid for 21 days; format: organism-based; settings: in vivo, 504 h
[31] = Clearance in Sprague-Dawley rat at 3 mg/kg, iv by UPLC analysis; format: ADME, organism-based; settings: in vivo
[32] = Oral bioavailability in CD1 mouse at 10 mg/kg by UPLC analysis; format: ADME, organism-based; settings: in vivo
Mus musculus [33] = assay: In vivo inhibition of HIF-2alpha in SCID/Biege mouse xenografted with human 786-O cells assessed as reduction in CCND1 mRNA levels at 10 mg/kg, po bid for 3 days and measured after 12 hrs post last dose by qRT-PCR analysis; format: functional, organism-based

Sequence of Cytochrome P450 3A4 (P08684 whole entry): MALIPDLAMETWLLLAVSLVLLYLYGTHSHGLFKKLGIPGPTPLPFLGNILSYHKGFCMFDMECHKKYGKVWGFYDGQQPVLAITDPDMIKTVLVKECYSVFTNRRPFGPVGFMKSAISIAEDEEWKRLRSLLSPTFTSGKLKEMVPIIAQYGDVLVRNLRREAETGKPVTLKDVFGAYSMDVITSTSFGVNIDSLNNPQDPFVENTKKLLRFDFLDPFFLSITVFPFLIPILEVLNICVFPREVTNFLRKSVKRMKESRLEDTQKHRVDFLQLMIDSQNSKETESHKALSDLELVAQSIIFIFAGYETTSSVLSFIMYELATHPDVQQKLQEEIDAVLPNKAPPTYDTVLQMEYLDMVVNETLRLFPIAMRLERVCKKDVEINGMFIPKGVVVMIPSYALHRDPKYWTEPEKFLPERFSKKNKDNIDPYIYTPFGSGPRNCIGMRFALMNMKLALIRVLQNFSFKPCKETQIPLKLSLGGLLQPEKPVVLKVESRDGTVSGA
Sequence of Cytochrome P450 2C9 (P11712 whole entry): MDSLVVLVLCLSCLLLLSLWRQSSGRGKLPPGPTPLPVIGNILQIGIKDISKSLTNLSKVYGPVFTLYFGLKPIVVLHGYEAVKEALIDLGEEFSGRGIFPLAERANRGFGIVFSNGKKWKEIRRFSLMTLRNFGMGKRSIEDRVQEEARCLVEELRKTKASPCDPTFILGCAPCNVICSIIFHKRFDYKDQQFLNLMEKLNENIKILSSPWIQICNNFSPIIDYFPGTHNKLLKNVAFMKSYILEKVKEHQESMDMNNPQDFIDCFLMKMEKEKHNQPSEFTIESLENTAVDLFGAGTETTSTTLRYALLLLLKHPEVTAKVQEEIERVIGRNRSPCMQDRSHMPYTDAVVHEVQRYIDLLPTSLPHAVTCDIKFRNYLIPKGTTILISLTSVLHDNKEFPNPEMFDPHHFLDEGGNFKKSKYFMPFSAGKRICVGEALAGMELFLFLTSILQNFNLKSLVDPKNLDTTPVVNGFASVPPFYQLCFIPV
Sequence of Cytochrome P450 2D6 (P10635 whole entry): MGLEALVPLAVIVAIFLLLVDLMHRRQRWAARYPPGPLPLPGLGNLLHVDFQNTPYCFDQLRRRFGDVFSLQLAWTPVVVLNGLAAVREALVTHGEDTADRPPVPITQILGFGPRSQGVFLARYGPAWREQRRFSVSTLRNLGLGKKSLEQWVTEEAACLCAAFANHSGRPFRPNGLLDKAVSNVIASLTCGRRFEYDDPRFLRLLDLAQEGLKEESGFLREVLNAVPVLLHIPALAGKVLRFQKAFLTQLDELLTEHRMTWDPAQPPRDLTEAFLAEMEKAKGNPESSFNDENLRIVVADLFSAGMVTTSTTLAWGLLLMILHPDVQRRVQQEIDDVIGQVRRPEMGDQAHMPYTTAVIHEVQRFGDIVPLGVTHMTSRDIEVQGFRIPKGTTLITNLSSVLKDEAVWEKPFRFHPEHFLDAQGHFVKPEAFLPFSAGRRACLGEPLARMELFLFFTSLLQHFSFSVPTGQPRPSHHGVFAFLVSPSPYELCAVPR

SMILES	Papp A→B at 1 h, 1 µM [1] [×10⁻⁶ cm/s]	AUC(0-t) [2] [µM·h]	F (Canis familiaris [3]) [%]	fraction unbound at 4 h, 10 µM [4]	clearance [5] [mL/min/kg]	fraction unbound at 4 h, 10 µM [6]	half-life [7] [h]	CLint scaled at 1 µM [8] [mL/min/kg]	CLint scaled at 1 µM [9] [mL/min/kg]	fraction unbound at 4 h, 10 µM [10]	IC50 (Cytochrome P450 2D6) [µM]	solubility thermodynamic at 24 h [11] [µM]	Vd [12] [L/kg]	Activity (786-0 [13])	Activity (Mus musculus [14])	AUC(0-t) [15] [µM·h]	Vd [16] [L/kg]	fraction unbound at 4 h, 10 µM [17]	half-life [18] [h]	Drug uptake (Mus musculus [19])	also measured
CS(=O)(=O)c1ccc(Oc2cc(F)cc(C#N)c2)c2c1[C@H](O)C(F)(F)C2	2.98	5.12	87	0.25	29.2	0.21	3.3	22.6	19.9	0.26	> 50	59 (≈ 22.6 µg/mL)	7	Active	Non-Toxic	16.4	8.6	0.29	11	Active	CLint scaled at 1 µM [20]: 4.7 mL/min/kg; fraction unbound at 4 h, 10 µM [21]: 0.26; IC50 (Cytochrome P450 1A2): > 50 µM; CLint scaled at 1 µM [22]: 5.4 mL/min/kg; inhibition (786-0 [23]): Active; inhibition (Mus musculus [24]): Active; Vd [25]: 6.24 L/kg; CLint scaled at 1 µM [26]: < 5 mL/min/kg; IC50 (Cytochrome P450 2C9): 23 µM; AUCt (Canis familiaris [27]): 6.2 µM·h; bioavailability [28]: 40%; Activity (Mus musculus [29]): Non-Toxic; IC50 (Cytochrome P450 3A4): > 50 µM; Activity (Mus musculus [30]): Non-Toxic; clearance [31]: 34.6 mL/min/kg; bioavailability [32]: 110%; inhibition (Mus musculus [33]): Active
N#Cc1cc(F)cc(Oc2ccc3c(c2C(F)F)[C@@H](O)C(F)(F)S3(=O)=O)c1	2.6	5.49	72	0.18	70.6	0.37	3.7	9.1	5.9	0.11	> 50	126 (≈ 51.1 µg/mL)	9.5	Active	Non-Toxic	6.1	3.1	0.15	6.7	Active	CLint scaled at 1 µM [20]: < 3 mL/min/kg; fraction unbound at 4 h, 10 µM [21]: 0.38; IC50 (Cytochrome P450 1A2): > 50 µM; CLint scaled at 1 µM [22]: < 4 mL/min/kg; inhibition (786-0 [23]): Active; inhibition (Mus musculus [24]): Active; Vd [25]: 3.5 L/kg; CLint scaled at 1 µM [26]: < 5 mL/min/kg; IC50 (Cytochrome P450 2C9): 15.7 µM; AUCt (Canis familiaris [27]): 12.6 µM·h; bioavailability [28]: 36%; Activity (Mus musculus [29]): Non-Toxic; IC50 (Cytochrome P450 3A4): 13.3 µM; Activity (Mus musculus [30]): Non-Toxic; clearance [31]: 27.2 mL/min/kg; bioavailability [32]: 110%; inhibition (Mus musculus [33]): Active
